The text below walks through data of patent US8563545B2, “Compound useful for the treatment of degenerative and inflammatory diseases” (Galapagos NV, priority 2009, dated 2013).

This assay deals with JAK1-dependent pathway (IL-6 stimulated STAT1 phosphorylation in CD4+ lymphocytes) in human whole blood. In words: cells. The conditions noted are these: Lymphocyte, read-out: pIC50 in the inhibition of STAT1 phosphorylation (converted).

Method: Therefore, blood was taken from human volunteers who gave informed consent. Blood was then equilibrated for 30 minutes at 37° C. under gentle rocking, then aliquoted in Eppendorf tubes. Compound was added at different concentrations and incubated at 37° C. for 30 minutes under gentle rocking and subsequently stimulated for 20 minutes at 37° C. under gentle rocking with interleukin 6 (IL-6) for JAK1-dependent pathway stimulation or GM-CSF for JAK2-dependent pathway stimulation. Phospho-STAT1 and phospho-STAT5 were then evaluated using FACS analysis.
The increase in phosphorylation of STAT1 by IL-6 in lymphocytes was measured using anti phospho-STAT1 antibody by FACS.
A 3-fold dilution series of the compound was prepared in DMSO (10 mM stock solution). Control-treated samples received DMSO instead of compound. All samples were incubated with a 1% final DMSO concentration.
Human blood was collected in heparinized tubes. The blood was divided in aliquots of 148.54 μl. […]
50,000 total events were counted and Phospho-STAT1 positive cells were measured after gating on CD4+ cells, in the lymphocyte gate. Data were analyzed using the FACSDiva software and the percentage inhibition of IL-6 stimulation calculated on the percentage of positive cells for phospho-STAT1 on CD4+ cells.

As for `O=C(Nc1nc2cccc(-c3ccc(CN4CCS(=O)(=O)CC4)cc3)n2n1)C1CC1` [Compound 1, Cyclopropanecarboxylic acid {5-[4-(1,1-dioxo-1-thiomorpholin-4-ylmethyl)-phenyl]-[1,2,4]triazolo [1,5-a]pyridin-2-yl}-amide], the IC50 is 832 nM.
